{"source": "patent US5641758A", "about": "“Cytarabine derivatives, the preparation and use thereof” (priority 1994, dated 1997)", "key": {"HL-60 [1]": {"tested_on": "HL-60", "assay": "MTT dye reduction cytotoxicity assay, HL-60", "type": "cell-based", "settings": "Homo sapiens"}, "L1210 leukemia [2]": {"tested_on": "L1210 leukemia", "assay": "Intravenous treatment of L1210 leukemia in BDF1 mice", "type": "in vivo, murine (female BDF1 mice)", "settings": "i.v.; for T/C, increase of lifespan: including 60d survivors; for Survivors 60 Days: survivors/group"}, "U937": {"tested_on": "U937", "assay": "MTT dye reduction cytotoxicity assay, U937", "type": "cell-based", "settings": "Homo sapiens, U-937"}, "CCRF-CEM [3]": {"tested_on": "CCRF-CEM", "assay": "MTT dye reduction cytotoxicity assay, CCRF-CEM", "type": "cell-based", "settings": "Homo sapiens"}, "L1210 leukemia [4]": {"tested_on": "L1210 leukemia", "assay": "Oral treatment of L1210 leukemia in BDF1 mice, therapy on days 1-5", "type": "in vivo, murine (female BDF1 mice)", "settings": "for T/C, increase of lifespan: including 60 day survivors; for Survivors 60 Days: survivors/group", "description": "The anti-tumor activity of the liposomal drug preparations was evaluated with the murine L1210 leukemia model in female BDF1 mice (Rubas et al., Int. J. Cancer, 37, 149-154 (1986)). The L1210 cells (1×10^5) from donor ascites were injected i.v.\nControl groups of 5-6 mice received ara-C dissolved in phosphate buffer (PB). The animals were observed daily until death or 60 days. Increase in lifespan of the treated animals (T) was compared to that of the untreated controls (C), expressed as T/C in percentages. Animals surviving 60 days were included in the calculation and considered as being cured."}, "cytosine deaminase": {"tested_on": "cytosine deaminase", "settings": "in the body, in words; cited from earlier work"}, "K562": {"tested_on": "K562", "assay": "MTT dye reduction cytotoxicity assay, K562", "type": "cell-based", "settings": "Homo sapiens"}, "[5]": {"assay": "Toxicity (lethality, maximal tolerated dose) in tumor-bearing nude mice, i.p.", "settings": "mouse, in vivo, ip", "description": "(§1) 6 to 8 week old nude mice of NMRI genetic background were used for all experiments. Tumors were implanted subcutaneously in both flanks of athymic nude mice. Treatment was started as soon as the tumors reached a median diameter of 6 mm, depending on the doubling time between day 12-42. Mice were randomly assigned to treatment groups and control group (5-6 mice per group bearing 6-12 evaluable tumors).\nDrug therapy was intraperitoneal on day 1,4,7 and 10.\nToxicity was assessed by lethality within 10 days after last therapy and body weight loss. The body weight of the nude mice was measured weekly, for rapidly growing tumor lines, measurements were done twice weekly."}, "OVXF 1023": {"tested_on": "OVXF 1023", "assay": "Human tumor xenograft in nude mice, i.p., ovary carcinoma OVXF 1023", "type": "in vivo", "settings": "i.p. 150 mg/kg/day (MTD), days 1,4,7,10", "description": "as §1\n(§2) Tumor size was measured by two-dimensional measurement with calipers. The antitumor effect was evaluated following maximal tumor regression, in non-regressing tumors after 3-4 weeks. Relative tumor volume (RTV) values were calculated for each single tumor by dividing the tumor volume day×by the tumor volume day 0 at the time of randomization. Median RTV values were used for further evaluation.\n(§3) Drug therapy was intraperitoneal on day 1,4,7 and 10. The dose of 150 mg/kg/day was considered to be the maximal tolerated dose resulting in a lethality of 14% in tumor-bearing nude mice.\n(§4) Tumor growth inhibition was calculated according to relative tumor volume of control minus test divided by the control group. Furthermore the specific growth delay (SGD) was calculated with regard to the tumor doubling time (DT) by doubling time test group minus control divided by the doubling time of the control group."}, "LXFL 529": {"tested_on": "LXFL 529", "assay": "Human tumor xenograft in nude mice, i.p., lung carcinoma LXFL 529", "type": "in vivo", "settings": "LXFL 529, large cell; i.p. 150 mg/kg/day (MTD), days 1,4,7,10", "description": "as §1, §2, §3, §4"}, "CCRF-CEM [6]": {"tested_on": "CCRF-CEM", "assay": "Human tumor xenograft in nude mice, i.p., leukemia CCRF-CEM", "type": "in vivo", "settings": "acute lymphatic leukemia, i.p. 150 mg/kg/day (MTD), days 1,4,7,10", "description": "as §1, §2, §3, §4"}, "MEXF 276": {"tested_on": "MEXF 276", "assay": "Human tumor xenograft in nude mice, i.p., melanoma MEXF 276", "type": "in vivo", "settings": "MEXF 276, amelanotic; i.p. 150 mg/kg/day (MTD), days 1,4,7,10", "description": "as §1, §2, §3, §4"}, "LXFS 605": {"tested_on": "LXFS 605", "assay": "Human tumor xenograft in nude mice, i.p., lung carcinoma LXFS 605", "type": "in vivo", "settings": "LXFS 605, small cell; i.p. 150 mg/kg/day (MTD), days 1,4,7,10", "description": "as §1, §2, §3, §4"}, "CCRF-CEM (dcK)^-": {"tested_on": "CCRF-CEM (dcK)^-", "assay": "MTT dye reduction cytotoxicity assay, CCRF-CEM deoxycytidine kinase deficient cell line", "type": "cell-based", "settings": "Homo sapiens"}, "HL-60 [7]": {"tested_on": "HL-60", "assay": "Human tumor xenograft in nude mice, i.p., leukemia HL-60", "type": "in vivo", "settings": "HL-60, acute promyelocytic leukemia; i.p. 150 mg/kg/day (MTD), days 1,4,7,10", "description": "as §1, §2, §3, §4"}, "PC3M": {"tested_on": "PC3M", "assay": "Human tumor xenograft in nude mice, i.p., prostate carcinoma PC3M", "type": "in vivo", "settings": "adenocarcinoma, i.p. 150 mg/kg/day (MTD), days 1,4,7,10", "description": "as §1, §2, §3, §4"}, "MAXF 401": {"tested_on": "MAXF 401", "assay": "Human tumor xenograft in nude mice, i.p., mammary carcinoma MAXF 401", "type": "in vivo", "settings": "MAXF 401, adenocarcinoma; i.p. 150 mg/kg/day (MTD), days 1,4,7,10", "description": "as §1, §2, §3, §4"}, "[8]": {"settings": "total dose 200 μmol/kg (49 mg/kg)"}}, "note": "Like-named read-outs stand apart in the source and are kept apart here."}
{"smiles": "Nc1ccn([C@@H]2O[C@H](CO)[C@@H](O)[C@@H]2O)c(=O)n1", "note": "[ara-C, 4-amino-1-β-D-arabinofuranosyl-2(1H)-pyrimidinone, reference compound]", "values": [{"measurement": "IC50", "setting": "HL-60 [1]; HL-60", "result": "> 200", "unit": "µM"}, {"measurement": "Survival Time, Mean ± SD", "setting": "L1210 leukemia [2]; [8]", "result": "19.8 ± 19.7", "unit": "days"}, {"measurement": "T/C, increase of lifespan", "setting": "L1210 leukemia [2]; [8]", "result": 282, "unit": "%"}, {"measurement": "Survivors 60 Days", "setting": "L1210 leukemia [2]; [8]", "result": "1/6"}, {"measurement": "IC50", "setting": "U937", "result": "> 200", "unit": "µM"}, {"measurement": "IC50", "setting": "CCRF-CEM [3]", "result": "< 1", "unit": "µM"}, {"measurement": "Survival Time, Mean ± SD", "setting": "L1210 leukemia [4]; total dose 2 mmol/kg", "result": "13 ± 17", "unit": "days"}, {"measurement": "Survival Time, Range", "setting": "L1210 leukemia [4]; total dose 2 mmol/kg", "result": "10 to 52", "unit": "days"}, {"measurement": "T/C, increase of lifespan", "setting": "L1210 leukemia [4]; total dose 2 mmol/kg", "result": 221, "unit": "%"}, {"measurement": "Survivors 60 Days", "setting": "L1210 leukemia [4]; total dose 2 mmol/kg", "result": "0/6"}, {"measurement": "deamination by cytosine deaminase", "setting": "cytosine deaminase", "result": "rapidly undergoes deamination"}, {"measurement": "IC50", "setting": "K562; K562", "result": "> 400", "unit": "µM"}]}
{"smiles": "CCCCCCCCCCCCCCCCCCNc1ccn([C@@H]2O[C@H](CO)[C@@H](O)[C@@H]2O)c(=O)n1", "note": "[NOAC, 4-(1-octadecylamino)-1-β-D-arabinofuranosyl-2(1H)-pyrimidinone]", "values": [{"measurement": "IC50", "setting": "HL-60 [1]; HL-60, MTT assay, read-out: IC50", "result": "< 50", "unit": "µM"}, {"measurement": "MTD", "setting": "[5]; days 1,4,7 and 10, tumor-bearing nude mice", "result": 150, "unit": "mg/kg/day"}, {"measurement": "mortality", "setting": "[5]; 150 mg/kg/day i.p., tumor-bearing nude mice", "result": 14, "unit": "%"}, {"measurement": "effect compared with ara-C and N^4-hexadecyl-ara-C", "setting": "L1210 leukemia [2]; results of Table 2, in words", "result": "superiority of NOAC over the prior art compounds, ara-C and N^4 -hexadecyl-ara-C"}, {"measurement": "Survival Time, Mean ± SD", "setting": "L1210 leukemia [2]; total dose 50 μmol/kg", "result": "52.1 ± 19.2", "unit": "days"}, {"measurement": "T/C, increase of lifespan", "setting": "L1210 leukemia [2]; total dose 50 μmol/kg", "result": 744, "unit": "%"}, {"measurement": "Survivors 60 Days", "setting": "L1210 leukemia [2]; total dose 50 μmol/kg", "result": "5/6"}, {"measurement": "Survival Time, Mean ± SD", "setting": "L1210 leukemia [2]; total dose 100 μmol/kg", "result": 60, "unit": "days"}, {"measurement": "Survival Time, Range", "setting": "L1210 leukemia [2]; total dose 100 μmol/kg", "result": "> 60", "unit": "days"}, {"measurement": "T/C, increase of lifespan", "setting": "L1210 leukemia [2]; total dose 100 μmol/kg", "result": 857, "unit": "%"}, {"measurement": "Survivors 60 Days", "setting": "L1210 leukemia [2]; total dose 100 μmol/kg", "result": "6/6"}, {"measurement": "IC50", "setting": "U937; U937, MTT assay, read-out: IC50", "result": "< 100", "unit": "µM"}, {"measurement": "Growth inhibition", "setting": "OVXF 1023", "result": 45, "unit": "%"}, {"measurement": "Growth inhibition", "setting": "LXFL 529", "result": 79, "unit": "%"}, {"measurement": "Growth inhibition", "setting": "CCRF-CEM [6]", "result": 96, "unit": "%"}, {"measurement": "Growth inhibition", "setting": "MEXF 276", "result": 39, "unit": "%"}, {"measurement": "Growth inhibition", "setting": "LXFS 605", "result": 73, "unit": "%"}, {"measurement": "IC50", "setting": "CCRF-CEM (dcK)^-", "result": "< 140", "unit": "µM"}, {"measurement": "IC50", "setting": "CCRF-CEM [3]; MTT assay, read-out: IC50", "result": 50, "unit": "µM"}, {"measurement": "Growth inhibition", "setting": "HL-60 [7]", "result": 97, "unit": "%"}, {"measurement": "Survival Time, Mean ± SD", "setting": "L1210 leukemia [4]; total dose 1 mmol/kg", "result": "54 ± 15", "unit": "days"}, {"measurement": "T/C, increase of lifespan", "setting": "L1210 leukemia [4]; total dose 1 mmol/kg", "result": 673, "unit": "%"}, {"measurement": "Survivors 60 Days", "setting": "L1210 leukemia [4]; total dose 1 mmol/kg", "result": "5/6"}, {"measurement": "Survival Time, Mean ± SD", "setting": "L1210 leukemia [4]; total dose 2 mmol/kg", "result": "55 ± 12", "unit": "days"}, {"measurement": "T/C, increase of lifespan", "setting": "L1210 leukemia [4]; total dose 2 mmol/kg", "result": 689, "unit": "%"}, {"measurement": "Survivors 60 Days", "setting": "L1210 leukemia [4]; total dose 2 mmol/kg", "result": "5/6"}, {"measurement": "Growth inhibition", "setting": "PC3M", "result": 83, "unit": "%"}, {"measurement": "Growth inhibition", "setting": "MAXF 401", "result": 85, "unit": "%"}, {"measurement": "IC50", "setting": "K562; K562, MTT assay, read-out: IC50", "result": "< 200", "unit": "µM"}]}
{"smiles": "CCCCCCCCCCCCCCCCNc1ccn([C@@H]2O[C@H](CO)[C@@H](O)[C@@H]2O)c(=O)n1", "note": "[N^4 -Hexadecyl-ara-C, 4-(1-hexadecylamino)-1-β-D-arabinofuranosyl-2(1H)-pyrimidinone]", "values": [{"measurement": "Survival Time, Mean ± SD", "setting": "L1210 leukemia [2]; total dose 50 μmol/kg", "result": 10.6, "unit": "days"}, {"measurement": "Survival Time, Range", "setting": "L1210 leukemia [2]; total dose 50 μmol/kg", "result": "10 to 11", "unit": "days"}, {"measurement": "Survivors 60 Days", "setting": "L1210 leukemia [2]; total dose 50 μmol/kg", "result": "0/5"}, {"measurement": "Survival Time, Mean ± SD", "setting": "L1210 leukemia [2]; total dose 100 μmol/kg", "result": 12.0, "unit": "days"}, {"measurement": "Survival Time, Range", "setting": "L1210 leukemia [2]; total dose 100 μmol/kg", "result": "11 to 16", "unit": "days"}, {"measurement": "Survivors 60 Days", "setting": "L1210 leukemia [2]; total dose 100 μmol/kg", "result": "0/5"}]}
